# Data reported in patent US7605179B2, “Napthoquinone derivatives as inhibitors of tau aggregation for the treatment of alzheimer's and related neurodegenerative disorders” (Wista Laboratories Ltd., priority 2001, dated 2009).
# Tests used:
# [1] = test system: fibroblast cells (3T6); test: Toxicity in the T40/12 kD cell assay (lactate dehydrogenase kit); format: cell-based; conditions: for LD50: cellular LD50, cell numbers after 24 hrs exposure; for Rxindx: therapeutic index, RxIndx=LD50/B50
# Experimental: Toxicity of the compounds described above was assessed in the T40/12 kD cell assay used to assess activity. Toxicity was measured by cell numbers after 24 hrs exposure to the compound using a lactate dehydrogenase assay kit TOX-7(Sigma Biosciences) according to the manufacturer's instructions after lysis of remaining cells. Alternatively a kit from Promega UK (CytoTox 96) was used, again according to the manufacturer's instructions.
# [2] = target: tau-tau binding (Homo sapiens, UniProt P10636); test: Cell-based assay I ('T40/12 kD'), production of the 12 kD fragment; conditions: for activity as inhibitor of tau-tau aggregation: T40/12 kD cell assay; for Ki: apparent KI calculated from T40/12 kD cell data, assumes intracellular tau 500 nM, tau-tau Kd 22 nM; for IC50: concentration at which production of the 12 kD band from full-length tau is reduced to 50%, read-out: B50
# Experimental: Production of the 12 kD fragment can be blocked in a dose-dependent manner by tau-aggregation inhibitors. Indeed the quantitation of inhibitory activity of compounds with respect to proteolytic generation of the 12 kD fragment within cells can be described entirely in terms of the same parameters which describe inhibition of tau-tau binding in vitro. That is, extent of proteolytic generation of the 12 kD fragment within cells is determined entirely by the extent to tau-tau binding through the repeat domain. The availability of the relevant proteases within the cell is non-limiting.
# The process is described in more detail in prior filed unpublished application GB 0101049.5.
# The observed cell data for production of the 12 kD band can be fitted closely (i.e. observed vs. predicted correlation coefficient >0.9), to a standard function describing inhibition of tau-tau binding in vitro. To obtain this fit, two assumptions need to be made, which are consistent with results from other cell-based and in vitro studies: • 1) the intracellular concentration of tau is approximately 500 nM; • 2) the tau-tau binding affinity is 22 nM.
# When these assumptions are made, the function: Activity=[tau]([tau]+Kd*(1+[inhibitor]/KI)) can be solved by standard numerical methods to derive a value for apparent KI. Comparison with values observed for tau-tau binding in vitro at a tau concentration of 500 nM, where the Kd value for tau-tau binding is known to be 22 nM confirm that the sole determinant of production of the proteolytically stable core tau unit of the PHF within the cell is simply the extent of tau-tau binding.
# A further parameter, B50, has been established in respect of compounds exemplified herein. The B50 value is the determined concentration of test compound used in the cell assay at which relative production of the 12 kD band from full-length tau was reduced to 50% of that observed in the absence of the compound. This provides an indication of the tissue concentration which would be required to achieve the corresponding activity in vivo. In general there is an approximately linear relationship between apparent KI value and B50 value, which can be used to derive the KI value: B50(μM)=0.0217×KI(nM) Cell-based Assay II(‘ssK40/25 kD’)
# [3] = test system: cultured CNS neurones; conditions: cited from earlier work
# [4] = target: T1, tau-tau aggregation (Homo sapiens, UniProt P10636); test: Cell-based assay II ('ssK40/25 kD'), proteolytic processing of tau; conditions: concentrations of 1-2 μM
# T1 construct: membrane-targeted tau (sstau190-441, “ssK40”); expressed in transfected cells
# Text: The process is described in more detail in prior filed unpublished application GB 0100119.7. […] These cleavage sites correspond to the known boundaries of the PHF-core domain, indicate that their generation within the cell depends on PHF-like tau aggregation through an antiparallel phase-shifted alignment of the repeat domain.
# This is shown schematically in FIG. 7. When expression of full-length tau (T40) is activated under control of an inducible promoter in cells which constitutively express the membrane-targeted ssK40 fragment, T40 is processed proteolytically to give rise to a K40 fragment (N-terminal truncation at ˜αα 185), a K30 fragment (C-terminal truncation ˜αα 390) and a K25 fragment (N-terminal truncation at ˜αα 295).
# [5] = test system: tau-tau binding; test: In vitro tau-tau binding assay (WO 96/30766)
# Experimental: FIG. 5 is a schematic representation of the in vitro aggregation assay of WO 96/30766 in which binding of two truncated units is measured. The species terminating at […] (“a”) is first coated on the ELISA plate (in sodium carbonate buffer: 50 mM, pH 9.6). Next, a second truncated tau species terminating at […] (“e”) is incubated in various buffer conditions. […] This is described in detail in WO 96/30766. Briefly, a fragment of tau corresponding to the core repeat domain, which has been adsorbed to a solid phase substrate, is able to capture soluble full-length tau and bind tau with high affinity. This association confers stability against proteolytic digestion of the aggregated tau molecules. The process is self-propagating, and can be blocked selectively by prototype pharmaceutical agents ([…]., et al. (1996), loc. cit). The assay is shown schematically in FIG. 5.
# [6] = test system: tau-tau binding; conditions: WO 96/30766 FIGS. 23 and 24; 1 represents binding equivalent to that in the absence of compound; cited from earlier work
# [7] = test system: tau protein; conditions: 200 μM; cited from earlier work
# [8] = target: tau-tubulin binding (Homo sapiens, UniProt P10636); test: In vitro tau-tubulin binding; conditions: at concentrations up to 500 μM (2500:1 molar ratio with respect to tau)
# Sequence of tau-tubulin binding (P10636 whole entry): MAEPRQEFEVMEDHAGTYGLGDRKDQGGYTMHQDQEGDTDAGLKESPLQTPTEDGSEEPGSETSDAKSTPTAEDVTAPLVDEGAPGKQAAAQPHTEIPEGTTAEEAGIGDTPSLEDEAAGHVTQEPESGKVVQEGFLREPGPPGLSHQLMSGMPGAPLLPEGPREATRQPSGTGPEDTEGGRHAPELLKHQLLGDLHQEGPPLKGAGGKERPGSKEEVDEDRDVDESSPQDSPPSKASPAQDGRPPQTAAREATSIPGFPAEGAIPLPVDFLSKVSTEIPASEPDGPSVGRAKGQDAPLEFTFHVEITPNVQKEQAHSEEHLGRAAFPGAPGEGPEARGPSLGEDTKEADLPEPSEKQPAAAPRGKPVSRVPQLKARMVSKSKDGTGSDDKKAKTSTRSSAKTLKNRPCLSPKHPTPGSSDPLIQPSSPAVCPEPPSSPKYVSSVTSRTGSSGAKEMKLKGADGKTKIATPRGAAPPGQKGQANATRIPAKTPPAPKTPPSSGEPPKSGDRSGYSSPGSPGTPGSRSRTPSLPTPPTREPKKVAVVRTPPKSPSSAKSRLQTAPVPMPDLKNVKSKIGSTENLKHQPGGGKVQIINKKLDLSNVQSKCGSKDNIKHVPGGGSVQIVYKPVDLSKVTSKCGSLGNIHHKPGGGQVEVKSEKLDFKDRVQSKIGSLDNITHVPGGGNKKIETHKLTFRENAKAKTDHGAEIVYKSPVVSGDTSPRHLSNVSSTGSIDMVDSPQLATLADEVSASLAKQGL
# Sequence of tau-tau binding (Homo sapiens, UniProt P10636) (P10636 1-441 isoform P10636-8): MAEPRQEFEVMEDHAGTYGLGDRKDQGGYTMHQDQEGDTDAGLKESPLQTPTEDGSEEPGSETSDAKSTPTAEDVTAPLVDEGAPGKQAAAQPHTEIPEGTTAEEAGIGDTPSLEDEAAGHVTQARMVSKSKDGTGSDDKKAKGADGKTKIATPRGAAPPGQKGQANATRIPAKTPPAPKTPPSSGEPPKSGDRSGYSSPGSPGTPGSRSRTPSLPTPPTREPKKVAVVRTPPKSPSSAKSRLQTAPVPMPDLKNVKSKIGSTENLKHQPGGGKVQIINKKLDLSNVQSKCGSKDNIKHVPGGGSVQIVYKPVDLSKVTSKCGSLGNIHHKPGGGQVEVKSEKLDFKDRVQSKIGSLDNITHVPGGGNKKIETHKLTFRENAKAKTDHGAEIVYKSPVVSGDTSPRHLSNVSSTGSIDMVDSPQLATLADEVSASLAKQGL
# T1 sequence (P10636 507-758): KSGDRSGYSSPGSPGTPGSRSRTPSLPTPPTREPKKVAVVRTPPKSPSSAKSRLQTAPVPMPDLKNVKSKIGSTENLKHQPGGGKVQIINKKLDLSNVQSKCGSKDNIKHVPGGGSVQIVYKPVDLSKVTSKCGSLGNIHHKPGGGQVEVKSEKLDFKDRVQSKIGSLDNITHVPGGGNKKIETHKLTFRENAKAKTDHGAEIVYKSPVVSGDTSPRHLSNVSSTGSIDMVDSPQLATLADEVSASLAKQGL
Compound,LD50 [1] [µM],Rxindx [1],activity as inhibitor of tau-tau aggregation [2],Ki [2] [µM],IC50 [2] [µM],further results
O=C(O)c1cc(O)c2ccccc2c1O [DH5],34.29,13.39,had activity,0.118,2.56,–
CC(=O)Oc1cc(C)c(OC(C)=O)c2ccccc12 [DH9],13.09,4.75,highly active,0.127,2.76,–
CC(C)=CCC1=C(O)C(=O)c2ccccc2C1=O [DH1],100.97,9.07,weak activity,0.513,11.1,–
CC(=O)Oc1c(C)c(C)c(OC(C)=O)c2ccccc12 [DH11],12.13,0.83,reduced activity,0.674,14.6,–
"CC1=C(C)C(=O)c2ccccc2C1=O [DH10, 2,3-dimethyl-1,4-naphthoquinone]",66.71,13.91,–,0.221,4.8,–
Cc1cc(OS(=O)(=O)O)c2ccccc2c1OS(=O)(=O)O [DH13],30.90,5.41,intermediate in activity,0.263,5.71,–
"CC1=C(C/C=C(\C)CCC[C@H](C)CCC[C@H](C)CCCC(C)C)C(=O)c2ccccc2C1=O [Compound K1, 2-methyl-3-phytyl-1,4-naphthoquinone]",–,–,–,–,–,survival promoting effects ([3]; in the range 10 nM—1 μM): prominent survival promoting effects
"CC1=CC(=O)c2ccccc2C1=O [Compound K3, 2-methyl-1,4-naphthoquinone]",44.92,16.17,–,0.128,2.78,conversion K40→K25 relative to that seen without K3 [4]: about ½; conversion of T40→K25 relative to that seen without K3 [4]: about ¼; conversion of T40→K40 relative to that seen without K3 ([4]; inferred): about ½; activity in the in vitro assay [5]: did not show activity; ranking value of inhibitory properties [6]: 1.042; survival promoting activity relative to vitamins K1 and K2 ([3]; only at 1 μM): ~10%; effect on tau protein phosphorylation [7]: prominent dephosphorylation of tau protein
menaquinone [Compound K2],–,–,–,–,–,"inhibition of tau-tubulin binding in vitro [8]: does not inhibit; Ki ([5]; for values less than 100 μM, read-out: apparent KI value in vitro): 0.942 µM; ranking value of inhibitory properties [6]: 0.674"
